The subject of the test is LNCaP human prostate tumor cells. Briefly: Whole-cell voltage clamp of LNCaP cells. In kind it is cell-based. The following applies: peptide 10 μM, voltage ramp −100-100 mV (400 ms duration). The procedure:
LNCaP human prostate tumor cells were cultured on 5×5 mm plastic coverslips and were transferred to a microperfusion chamber on the stage of an inverted microscope. Whole-cell voltage clamp was accomplished with an Axopatch 200B (Axon Instr. Co., Union City, Calif.) using ruptured patches. Borosilicate glass capillaries (1.2 mm OD, 0.68 ID, type EN-I, Garner Glass Co., Claremont, Calif.) were used to fabricate patch pipettes (3-8 MΩ in the bath solution) with a Brown-Flaming horizontal micropipette puller (P-87, Sutter Instruments, San Rafael, Calif.). Patch-pipette tips were heat-polished prior to use. A micromanipulator (Narishige) fixed to the microscope positioned the pipettes. Electrode capacitance and access resistance were compensated prior to measurements. All experiments will be performed at room temperature (20-22° C.). The standard extracellular salt solution for ion currents contained (in mM): 150 NaCl, 6 KCl, 1.5 CaCl2, 1 MgCl2, 10 HEPES, 10 glucose, and pH adjusted to 7.4 with 1 N NaOH. […] Electrophysiological recordings were procured and analyzed using PClamp8 software (Axon Instr. Co, Union City, Calif.) and the WinASCD software (Guy Droogmans, Katholieke Universiteit; Leuven, B E). All results were recorded on computer hard drive or on digital audio tape (DAT). […]

Marks after values point to notes of the source that are not given here. Where a SMILES comes first, the peptide text is derived from it.

On to `CC[C@H](C)[C@H](NC(=O)[C@@H]1CSSC[C@H](NC(=O)[C@H](C)NC(=O)[C@H](CC(C)C)NC(=O)[C@H](CC(C)C)NC(=O)[C@H](CCCCN)NC(=O)[C@H](CC(=O)O)NC(=O)[C@H](CCC(=O)O)NC(=O)[C@H](CO)NC(=O)[C@@H](N)CC(C)C)C(=O)NCC(=O)N[C@@H](CCC(=O)O)C(=O)NCC(=O)N[C@@H](C)C(=O)N[C@@H](C)C(=O)N[C@@H](CC(=O)O)C(=O)N[C@@H]([C@@H](C)CC)C(=O)N[C@@H]([C@@H](C)CC)C(=O)N[C@@H]([C@@H](C)CC)C(=O)NCC(=O)N[C@@H](Cc2c[nH]cn2)C(=O)N[C@@H](CC(C)C)C(=O)N1)C(=O)N[C@@H](CCCNC(=N)N)C(=O)N[C@@H](Cc1c[nH]cn1)C(=O)N[C@@H](CCC(=O)O)C(=O)N[C@@H](CCSC)C(=O)N[C@H](C(=O)N1CCC[C@H]1C(=O)N[C@H](C(=O)N[C@@H](CC(N)=O)C(=O)N1CCC[C@H]1C(=O)NCC(=O)N[C@H](C(=O)O)C(C)C)C(C)C)[C@@H](C)O` [Cyclic GIP] (HELM PEPTIDE1{L.S.E.D.K.L.L.A.C.G.E.G.A.A.D.I.I.I.G.H.L.C.I.R.H.E.M.T.P.V.N.P.G.V}$PEPTIDE1,PEPTIDE1,9:R3-22:R3$$$V2.0; N-terminus and C-terminus assumed), for which the “Slope conductance (membrane conduction)” value is 0.78 0.15* nS/pF.

For the origin of these results see US20060111289A1, “Compositions and methods of using Alpha-fetoprotein growth inhibitory peptides” (Serometrix, LLC,, priority 2004, published 2006).
